Holding throughout (assay): NCI-60 cell line screen, 48 h
For experiment [1], the system named is RXF 393 renal.
Experiment [2] relates to NCI-H460 lung.
In experiment [3] the test system is OVCAR-8 ovarian.
For experiment [4], the system named is ACHN renal.
The test system of experiment [5] is HS 578T breast.
For experiment [6], the system named is SNB-75 CNS.
Experiment [7] concerns MALME-3M melanoma.
The test system of experiment [8] is IGROV1 ovarian.
The test system of experiment [9] is KM12 colon.
Experiment [10] relates to OVCAR-3 ovarian.

SMILES strings stand for the structures.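 Tested at 5 concentrations; 48 h exposure; 96-well plates; endpoints linearly interpolated, else capped at highest concentration. At the GI50, growth is halved. TGI: total growth inhibition.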

This is an account of results in PubChem BioAssay (NCI).

In the case of `Clc1ccc(OCc2nnc3n2N=C(c2ccc(Cl)cc2Cl)CS3)c(Cl)c1`, the GI50 in experiment [1] is 4.08 µM; in experiment [2], 19.3 µM; in experiment [3], 27.7 µM; in experiment [4] it was 20.5 µM; in experiment [5], 29.6 µM; in [6], 12.2 µM. The GI50 in experiment [7] was 23.8 µM; in [8], 20 µM; in experiment [9] it was 25.5 µM; in experiment [10] it was 21.2 µM. The TGI in [1] is 25.4 µM; in [2], 56.3 µM; in [3] it was 66.2 µM; in experiment [4], 49.9 µM; in experiment [5] it was greater than 100 µM; in experiment [6] it was 48.7 µM. The TGI in experiment [7] is 79.7 µM; in experiment [8] it was 52.9 µM; in [9], greater than 100 µM; in experiment [10], 73.1 µM.

In the case of `CC1=C(C)C(=O)O[C@@H]([C@](C)(O)[C@]2(O)CC[C@@]3(O)[C@@H]4C[C@H]5O[C@]56CC=CC(=O)[C@]6(C)[C@H]4CC[C@]23C)C1`, the GI50 in experiment [1] is 0.169 µM; in experiment [2] it was 0.618 µM; in experiment [3] it was 0.231 µM; in experiment [4] it was 0.29 µM; in experiment [5], 0.127 µM; in experiment [6] it was 0.0322 µM. For the same molecule, the GI50 in experiment [7] was 0.382 µM; in experiment [8] it was 0.283 µM; in experiment [9] it was 0.266 µM; in [10], 0.0667 µM. For the same molecule, the TGI is 0.62 µM in [1]; 2.4 µM in [2]; 4.86 µM in experiment [3]; 1.45 µM in experiment [4]; 2.33 µM in experiment [5]; 1.2 µM in experiment [6]. The TGI in experiment [7] is 3.4 µM; in experiment [8], 2.59 µM; in experiment [9], 1.57 µM; in experiment [10] it was 0.405 µM.

With `CC(C)(C)c1nc2c(o1)C(=Nc1ccc(F)cc1)c1ccccc1C2=O`, the TGI is 37.9 µM in [1]; 21.5 µM in [2]; greater than 61.2 µM in experiment [3]; 32.1 µM in experiment [4]; greater than 45.7 µM in [5]; 20 µM in [6]. Also, the TGI was 4.45 µM in experiment [7], greater than 66.7 µM in experiment [8], 52.5 µM in [9] and 7.62 µM in [10].

Regarding `CCn1c(-c2nonc2N)nc2ccc(F)cc21`, the GI50 in experiment [1], in experiment [2], in [3], in experiment [4], in [5] and in experiment [6] was greater than 25 µM in each case. For the same molecule, the GI50 in [7], in [8], in experiment [9] and in experiment [10] was greater than 25 µM throughout. In addition, the TGI in experiment [1], in experiment [2], in experiment [3], in experiment [4], in experiment [5] and in experiment [6] was greater than 25 µM each time. Moreover, the TGI in [7], in experiment [8], in experiment [9] and in experiment [10] was greater than 25 µM each time.

Turning to `CC(=O)[CH-]C(C)=O.CC(=O)[CH-]C(C)=O.N=CC=N.[Sn+2]`, the GI50 in [1] is 1.53 µM; in [2], 3.9 µM; in experiment [3], 2.11 µM; in [4], 3.2 µM; in [5], 2.66 µM; in experiment [6], 3.7 µM. For the same molecule, the GI50 in experiment [7] was 2.02 µM; in experiment [8], 9.53 µM; in experiment [9] it was 2.94 µM; in experiment [10] it was 2.86 µM. Moreover, the TGI was 3.34 µM in experiment [1]; 10.8 µM in experiment [2]; 4.74 µM in [3]; 9.77 µM in experiment [4]; 10.5 µM in experiment [5]; 13.7 µM in experiment [6]. The TGI in experiment [7] is 4.24 µM; in [8], 22.4 µM; in experiment [9] it was 8.49 µM; in experiment [10] it was 9.13 µM.

Consider `CCN(CCO)CCNc1ccc(C)c2sc3cc(Cl)ccc3c(=O)c12`, for which the GI50 was 0.738 µM in [1]; 1.41 µM in experiment [2]; 1.78 µM in experiment [3]; 1.61 µM in experiment [4]; 1.76 µM in experiment [5]; 1.97 µM in [6]. Moreover, the GI50 in [7] was 1.86 µM; in experiment [8], 1.64 µM; in experiment [9] it was 1.67 µM; in experiment [10], 1.72 µM. Besides, the TGI in [1] worked out at 2.2 µM; in experiment [2] it was 3.03 µM; in experiment [3], 3.38 µM; in [4], 3.19 µM; in experiment [5], 4.46 µM; in [6], 5.44 µM. In addition, the TGI is 3.51 µM in experiment [7], 3.39 µM in experiment [8], 3.36 µM in experiment [9] and 4.13 µM in experiment [10].

For the molecule `COc1cc(-c2cn(C)c(=O)c(C)c2C)cc(OC)c1CN1CC[C@H](N2CCN(c3ccc(N[C@H]4CCC(=O)NC4=O)cc3F)CC2)C(F)(F)C1`, the GI50 in experiment [1] is 11.1 µM; in experiment [2] it was 15.5 µM; in [3], 11.2 µM; in [4], 15.2 µM; in [5] it was 4 µM; in experiment [6], 5.2 µM. Moreover, the GI50 is 15 µM in experiment [7], 13.8 µM in experiment [8], 15.1 µM in experiment [9] and 13.4 µM in experiment [10]. For the same molecule, the TGI was 25 µM in [1]; 32.4 µM in experiment [2]; 25.7 µM in experiment [3]; 28.8 µM in experiment [4]; 38.5 µM in experiment [5]; 21.9 µM in [6]. For the same molecule, the TGI in [7] turned out to be 30.1 µM; in experiment [8], 34.3 µM; in [9] it was 30.2 µM; in [10] it was 27.2 µM.

For `NCCN1CCN(c2nccc(-c3ccc4ccccc4c3)n2)CC1`, the GI50 was 1.46 µM in experiment [1]; 1.91 µM in experiment [2]; 2.25 µM in experiment [3]; 1.71 µM in experiment [4]; 1.73 µM in experiment [5]; 1.41 µM in [6]. For the same molecule, the GI50 in experiment [7] is 1.83 µM; in [8], 1.97 µM; in [9], 1.85 µM; in experiment [10], 2.36 µM. Also, the TGI in experiment [1] worked out at 3.07 µM; in experiment [2] it was 3.69 µM; in experiment [3] it was 5.6 µM; in experiment [4], 3.29 µM; in [5], 4.37 µM; in experiment [6], 2.9 µM. The TGI in experiment [7] was found to be 3.52 µM; in experiment [8], 4.12 µM; in experiment [9] it was 3.48 µM; in experiment [10], 5.45 µM.
